In US8017144B2, “Controlled release polymeric compositions of bone growth promoting compounds” (Pfizer Inc., priority 2001, dated 2011):
“And” between values parts separate entries of the source, which are not always exact repeats. Equal values may be shown once.

Assays:
[1] = tested on: 1.5 cm segmental defect in the midulna; experiment: Dog ulnar segmental defect model; assay type: in vivo, dogs
Text: The ulnar segmental defect model was used to test the efficacy of a single dose of the test compound (which was the sodium salt of (3-(((4-tert-butyl-benzyl)-(pyridine-3-sulfonyl)-amino)-methyl)-phenoxy)-acetic acid) in a PLGH formulation ([…]). The protocol was modified as follows: With animals under general anesthesia, the foreleg was prepped and draped in sterile fashion. A lateral incision approximately 10 cm in length was made and the ulna was exposed extraperiostally. Periosteum was cut and moved to the proximal and distal parts of the incision. Then a 1.5 cm segmental defect was made in the midulna using a pendular saw. The radius and the remaining interosseal membrane were left intact. The defect site was irrigated with saline to remove bone debris. The site was then filled with test compound in a slow-release matrix formulation, as described above. The dogs were divided into the following groups.
Radiographs of the forelimbs were obtained immediately following surgery and every two weeks thereafter until the termination of the study. Radiographs were graded on a 0 to 6 scale (Table 2).

right femoral fracture = experiment: Rat femoral transverse fracture model; assay type: in vivo, Male Sprague-Dawley rats; details: single percutaneous injection to fracture site immediately after surgery; 50 mg/ml, 300 ul, 15 mg/rat; day 21
Protocol: Male Sprague-Dawley rats at 3 to 4 months of age were used. The animals were anesthetized with ketamine and xylazine at doses of 100 and 10 mg/kg, respectively. The right hindlimb of each rat was shaved and cleaned. A 1 cm incision was made just lateral to the patella and the femoral condyle was exposed. A Kirschner wire (0.045″ in diameter) was introduced into the intramedullary canal through the intercondylar portion to serve as an internal stabilization. The muscle incision was closed with Vicryl® and the skin incision was closed with stainless steel wound clips. The mid-diaphysis of the pinned femur was fractured by means of a three-point bending device driven by a dropped weight. The rats were permitted full weight-bearing and unrestricted activity after awakening from anesthesia. The test agents were administered on various days after surgery by percutaneous injection onto the fracture site. The animals were sacrificed on various days after treatment and the femurs were collected for analysis. Fracture healing was evaluated by using radiography, histomorphometry and biomechanical test. (See, e.g., F. Bonnarens and T. A. Einhorn, “Production of a standard closed fracture in laboratory animal bone,” Journal of Orthopaedic Research 2:97-101 (1984).)
Male Sprague-Dawley rats at 3 to 4 months of age were subjected to right femoral fracture. […]

[2] = tested on: osteotomy on the distal portion of the dog tibia; experiment: Canine tibial osteotomy model; assay type: in vivo, Beagle male dogs; details: RG502H/NMP, 8 weeks, sodium salt
Text: Normal fracture healing usually represents a biologically optimum healing process, as a result detecting an acceleration of healing in pre-clinical models that heal rapidly is both difficult and challenging. The test compound (which was the sodium salt of (3-(((4-tert-butyl-benzyl)-(pyridine-3-sulfonyl)-amino)-methyl)-phenoxy)-acetic acid) in a PLGH formulation (50% 50:50 PLGH (RG502H Grade)/50% NMP) was studied to determine its effect on accelerating healing in a rapidly healing canine osteotomy model. Enhancement of healing in this model supports potential applications of the test compound to heal normal fractures in humans since humans tend to heal fractures more slowly.
Beagle male dogs 12±3 kg, 14 months of age were used for the study. Dogs were divided into four groups of three to four animals each.
With animals under general anesthesia, the hindleg was prepped and draped in sterile fashion. A lateral incision approximately 4 cm in length was made. Surgical osteotomy was made on the distal portion of the dog tibia using a Gigli saw. The defect was stabilized using an AO plate. The fibula and the remaining interosseal membrane was left intact and the defect site was irrigated with saline to remove bone debris. The site was then filled with carrier as described above. Following surgery, animals were allowed full weight-bearing activity, and water and food ad libitum. […]

[3] = tested on: subperiosteum of the femur; experiment: Rat periosteal injection model; assay type: in vivo, Male Sprague-Dawley rats; details: single injection in a polymer formulation, day 15
Protocol: Male Sprague-Dawley rats at 3 weeks of age were used. The rats were anesthetized with isoflurane inhalation ([…]) in a conduction chamber located in a fume hood. The right hindlimb of each rat was shaved and cleaned. A 25 G needle attached with a Hamilton syringe pre-filled with testing solution was used for the local injection. The solution was injected onto the subperiosteum of the anterior, mid-diaphyseal region of femur in a volume of 5 to 10 ul for various days. On day 15, the rats were sacrificed and the femurs were collected for analysis. (See, e.g., M. E. Joyce, A. B. Roberts, M. B. Sporn and M. Bolander, “Transforming growth factor-β and the initiation of chondrogenesis and osteogenesis in the rat femur,” The Journal of Cell Biology 110:2195-2207 (1990).) On day one, the right femurs of male Sprague-Dawley rats received single injection of vehicle or test compound in a polymer formulation. The test compound was the sodium salt of (3-(((4-tert-butyl-benzyl)-(pyridine-3-sulfonyl)-amino)-methyl)-phenoxy)-acetic acid. On day 15, all rats were sacrificed and the right femurs were collected for analysis. Periosteal bone induction was assessed by using radiography and dual-energy X-ray absorptiometry (DEXA).

## CC(C)(C)c1ccc(CN(Cc2cccc(OCC(=O)[O-])c2)S(=O)(=O)c2cccnc2)cc1.[Na+] [test compound, (3-(((4-tert-butyl-benzyl)-(pyridine-3-sulfonyl)-amino)-methyl)-phenoxy)-acetic acid, sodium salt]
[1]; 50 mg/ml in 50% 50:50 PLGH (RG503H Grade)/50% NMP
  efficacy in formulation containing RG503H Grade: did not work well
[1]; 50 mg/ml in 50% 50:50 PLGH (RG503H Grade)/50% NMP, union achieved in some dogs
  union compared to RG502H Grade formulation: delayed
[1]; all treated groups vs none for vehicle controls
  treated animals healed, overall: 70-75%
[1]; by week 24, slow release matrix formulation RG502H/NMP
  remodeling of newly formed bone: remodeled back to the same shape and size as the contralateral bone
[1]; group B: 50 mg (1 ml of 50 mg/ml formulation), RG502H/NMP
  Complete rebridging/number of dogs: 2/4
[1]; group C: 10 mg (1 ml of 10 mg/ml formulation), RG502H/NMP
  Complete rebridging/number of dogs: 9/12
[1]; group C: 10 mg (1 ml of 10 mg/ml formulation), RG502H/NMP, two dogs
  Radiographic response: did not respond.
[1]; group D: 10 mg (0.2 ml of 50 mg/ml formulation), RG502H/NMP
  Complete rebridging/number of dogs: 3/4
[1]; groups B, C and D, slow release matrix formulation RG502H/NMP
  rebridgement of defect after a single application: complete rebridgement
Right femoral fracture
  calluses as assessed by radiography vs vehicle: larger and denser calluses
[2]; group C: 5 mg (0.5 ml of 10 mg/ml formulation)
  Rebridging/number of dogs: Four out of four and 4/4
[2]; group D: 25 mg (0.5 ml of 50 mg/ml formulation)
  Rebridging/number of dogs: the other three showed significant healing and 3/4
[3]
  bone mineral content (BMC) of the injected region of the femur by DEXA vs vehicle: significantly increased
[3]; anterior aspect of right femur
  periosteal bone induction by radiography: new bone formation
